Assay results as given in US20110275138A1, “KETOSE 3-EPIMERASE, ITS PREPARATION AND USES” (KABUSHIKI KAISHA HAYASHIBARA SEIBUTSU KAGAKU KENKYUJO, priority 2005, published 2011).
Like-named read-outs stand apart in the source and are kept apart here. Marks after values point to notes of the source that are not given here.

B1: ketose 3-epimerase: purified ketose 3-epimerase from Rhizobium leguminosarum ATCC14480, 282 amino acid residues represented by SEQ ID NO: 2 (protein, listed as Rhizobium leguminosarum)
chain: MEGFGVHTSMWTMNWDRAGAEKAIAGAVHYKMDFIEIALLNAPAVDAKHTRALLEKNKLRAVCSLGLPEHAWASVRPDAAIEHLKVAIEKTAEMNAEALSGVIFGGIGERTGVPPTQGEYDNIAKVLDVAAKHARKHGIQLGVEAVNRYENHLINSAQQAVDMVERVGADNIFVHLDTYHMNIEEKGAANGILIARDHLKYIHLSESDRGTPGYGNIPWDAIYAALAAIGFKGGLAMESFINMPPEVAYGLAVWRPVARDMEEVMDKGLPFLRNKAEQYGLI

What was measured:
ketose 3-epimerase [1] = type: biochemical, Rhizobium leguminosarum ATCC14480
ketose 3-epimerase [2] = assay: Substrate specificity of ketose 3-epimerase (epimer content by HPLC); type: biochemical, Rhizobium leguminosarum ATCC14480; conditions: for Epimer content in the reaction products: 1% (w/v) substrate, pH 8.0, 1 mM MnCl2, 45° C., 17 hours
Protocol: By using the purified preparation of the ketose 3-epimerase, obtained by the method in Experiment 2, the substrate specificity of the enzyme was investigated using various D- or L-ketohexoses and D- or L-ketopentoses as substrates. Substrate solutions were prepared by dissolving D-fructose, D-psicose, D-tagatose, D-sorbose, D-xylulose, D-ribulose, L-fructose, L-psicose, L-tagatose, L-sorbose, L-xylulose, or L-ribulose into 20 mM Tris-HCl buffer (pH 8.0) containing 1 mM MnCl2 to give a final concentration of 1% (w/v), respectively. Then, each substrate solution was further admixed with 2 units/g-substrate or 20 units/g-substrate, on a dry solid basis, as D-psicose 3-epimerase activity of the purified preparation of the ketose 3-epimerase, obtained by the method in Experiment 2; and followed by the enzyme reaction at 45° C. for 17 hours. After stopping the reaction by keeping the reaction mixture at 100° C. for 10 min, the content of epimer formed from each substrate was measured using high performance liquid chromatography (hereinafter, abbreviated as “HPLC”). HPLC was carried out under the following conditions: • Column: MCI GEL CK08EC, commercialized by Mitsubishi Chemical Corporation, Tokyo, Japan; • Eluent: water; • Column temperature: 75° C. • Flow rate: 0.6 ml/min • Detection: RID-10A, a differential refractometer commercialized by Shimadzu Corporation, Kyoto, Japan;

[3] = Optimum pH and optimum temperature of the enzyme; type: biochemical; conditions: for Optimum temperature: pH 8.0, 30 min
Protocol: (§1) The activity of the ketose 3 -epimerase of the present invention can be assayed by measuring the amount of D-fructose formed from D-psicose as a substrate. Specifically, the activity of the enzyme can be assayed as follows: A substrate solution is prepared by dissolving D-psicose in 20 mM Tris-HCl buffer (pH 8.0) containing 1 mM MnCl2 to give a final concentration of 1% (w/v). Two milliliters of the substrate solution is admixed with 0.5 ml of the enzyme solution, and the mixture solution is incubated at 45° C. for 30 min. The reaction is stopped by keeping the reaction mixture in boiling water bath for 5 min. Successively, 1 ml of the reaction mixture is admixed with 1 ml of deionized water and 1 ml NADP solution, prepared by dissolving 2.37 g of NADP, 5.93 g of ATP, and 1 g of MgSO4 7H2O into 500 ml of 0.3 M triethanolamine-HCl buffer (pH 7.6). While, Enzyme solution A and B, described below, were respectively diluted 4-fold with 0.3 M triethanolamine-HCl buffer (pH 7.6) and then both solutions were mixed in equal amount to make into a mixed enzyme solution. Then, 40 ml of the mixed enzyme solution was admixed with the mixture prepared above. After keeping the resulting mixture at room temperature for 30 min, absorbance of the mixture at 340 nm was measured for determining the amount of D-fructose formed by the reaction. […]
According to the methods described in Experiment 2, the soluble fraction of cell homogenate, obtained by the method in Experiment 5, was partially purified by salting out, dialysis and successive column chromatographies on “SEPABEADS” gel and “BUTYL-TOYOPEARL” gel, and the partially purified enzyme preparation was analyzed according to the methods in Experiment 3. […]

[4] = Ketose 3-epimerase activity assay: D-fructose formed from D-psicose; type: biochemical; conditions: D-psicose 3-epimerase activity, per purification step
Protocol: as §1, with “While, Enzyme solution A and B, described below, were respectively diluted 4-fold with 0.3 M triethanolamine-HCl buffer (pH 7.6) and then both solutions were mixed in equal amount to make into a mixed enzyme solution. Then, 40 ml of the mixed enzyme solution was admixed with the mixture prepared above.” left out
The following experiments explain the present invention in detail. In the following experiments, D-psicose 3-epimerase activity, converting D-psicose into D-fructose, was assayed according to the aforementioned assay method and expressed as ketose 3-epimerase activity.

[5] = 1 mM metal salt, substrate solution without 1 mM MnCl2, None = 100
[6] = 1 mM, in comparison with the case without metal ions
[7] = 1 mM metal salt, substrate solution without 1 mM MnCl2, None = 100, D-fructose determined by HPLC

Molecule	Relative activity (ketose 3-epimerase [1]; [5]) [%]	Effect on the ketose 3-epimerase activity (in words) (ketose 3-epimerase [1]; [6])	Epimer content in the reaction products (ketose 3-epimerase [2]; enzyme 2 units/g-substrate) [%]	Epimer content in the reaction products (ketose 3-epimerase [2]; enzyme 20 units/g-substrate) [%]	also measured
[Cl][Pb][Cl] [PbCl2]	69	slightly inhibited			
O=C(CO)[C@H](O)[C@@H](O)CO [L-Xylulose, L-xylulose]			1.6	10.3	Action of the ketose 3-epimerase on the substrate (in words) (ketose 3-epimerase [2]): efficiently catalyzed
[Cl][Ni][Cl] [NiCl2]	64	slightly inhibited			
[Cl][Sn][Cl] [SnCl2]	114	slightly activated			
O=C(CO)[C@H](O)[C@H](O)[C@H](O)CO [D-Psicose, D-psicose]			39.4	74.1	Action of the ketose 3-epimerase on the substrate (in words) (ketose 3-epimerase [2]): most efficiently catalyzes; Epimer content in the reaction products (ketose 3-epimerase [2]; enzyme 2 units/g-substrate, listed as D-psicose): about 39%
O=C(CO)[C@@H](O)[C@H](O)[C@H](O)CO [D-Fructose, D-fructose]			17.7	25.8	Action of the ketose 3-epimerase on the substrate (in words) (ketose 3-epimerase [2]): most efficiently catalyzes; Epimer content in the reaction products (ketose 3-epimerase [2]; enzyme 2 units/g-substrate, listed as D-fructose): about 18%
O=C(CO)[C@@H](O)[C@@H](O)[C@@H](O)CO [L-Psicose, L-psicose]			1.6	11.3	
[Cl-].[Cl-].[Sr+2] [SrCl2]	103	not activated			
O=C(CO)[C@@H](O)[C@@H](O)CO [L-Ribulose, L-ribulose]			19.2	58.4	Action of the ketose 3-epimerase on the substrate (in words) (ketose 3-epimerase [2]): efficiently catalyzed
[Cl-].[Cl-].[Co+2] [CoCl2]					Effect on the ketose 3-epimerase activity (in words) (ketose 3-epimerase [1]): not activated; Relative activity (ketose 3-epimerase [1]): 101%
O=C(CO)[C@H](O)[C@@H](O)[C@@H](O)CO [L-Fructose, L-fructose]			0	1.4	
[Cl-].[Cl-].[Zn+2] [ZnCl2]	13	remarkable inhibited			
[Ba+2].[Cl-].[Cl-] [BaCl2]	96				
[Cl][Fe][Cl] [FeCl2]					Relative activity (ketose 3-epimerase [1]; [7]): 67%
O=C(CO)[C@H](O)[C@@H](O)[C@H](O)CO [D-Sorbose, D-sorbose]			0	0.1	Action of the ketose 3-epimerase on the substrate (in words) (ketose 3-epimerase [2]): slightly catalyzed
[Cl][Cu][Cl] [CuCl2]	60	slightly inhibited			
O=C(CO)[C@H](O)[C@H](O)[C@@H](O)CO [L-Tagatose, L-tagatose]			3.2	26.7	
[Cl-].[Cl-].[Mg+2] [MgCl2]	141	Activated			Relative activity (ketose 3-epimerase [1]; 1 mM metal salt, substrate solution without 1 mM MnCl2, None = 100, listed as Mg^2+): about 140%
[Cl][Mn][Cl] [MnCl2]	283	Activated			Relative activity (ketose 3-epimerase [1]; 1 mM metal salt, substrate solution without 1 mM MnCl2, None = 100, listed as Mn^2+): about 280%
O=C(O)CN(CCN(CC(=O)O)CC(=O)O)CC(=O)O [EDTA]					Effect on the ketose 3-epimerase activity (in words) (ketose 3-epimerase [1]): not inhibited; Relative activity (ketose 3-epimerase [1]): 97%
[Ca+2].[Cl-].[Cl-] [CaCl2]	89				
[Cl][Fe]([Cl])[Cl] [FeCl3]					Relative activity (ketose 3-epimerase [1]; [7]): 64%
[Cl][Al]([Cl])[Cl] [AlCl3]	86				
O=C(CO)[C@@H](O)[C@H](O)[C@@H](O)CO [L-Sorbose, L-sorbose]			0	6.2	
[Cl][Hg][Cl] [HgCl2, mercury chloride]		remarkable inhibited			Relative activity (ketose 3-epimerase [1]; [7]): 35%
O=C(CO)[C@@H](O)[C@@H](O)[C@H](O)CO [D-Tagatose, D-tagatose]			0.6	5.3	Action of the ketose 3-epimerase on the substrate (in words) (ketose 3-epimerase [2]): slightly catalyzed
O=C(CO)[C@H](O)[C@H](O)CO [D-Ribulose, D-ribulose]			17.1	43.4	Action of the ketose 3-epimerase on the substrate (in words) (ketose 3-epimerase [2]): efficiently catalyzed
O=C(CO)[C@@H](O)[C@H](O)CO [D-Xylulose, D-xylulose]			2.3	19.6	Action of the ketose 3-epimerase on the substrate (in words) (ketose 3-epimerase [2]): efficiently catalyzed
B1					Optimum pH ([3]; 45° C., 30 min, in the presence of 1 mM Mn2+ ion): 9.0-9.5*; Optimum temperature ([3]; in the absence of 1 mM Mn2+ ion): 50 °C; Optimum temperature ([3]; in the presence of 1 mM Mn2+ ion): (65° C.)*; Specific activity of ketohexose 3-epimerase [4]: 41.6 units/mg-protein
